row,melting point,Compound
1,180 to 184 °C,"COc1cccc(OC)c1/C=C/C(=O)CC(=O)/C=C/c1c(OC)cccc1OC [CU390, (1E,6E)-1,7-bis(2,6-dimethoxyphenyl)hepta-1,6-diene-3,5-dione]"
2,247 to 255 °C,"O=C(/C=C/c1ccc2cc[nH]c2c1)CC(=O)/C=C/c1ccc2cc[nH]c2c1 [CU391, (1E,6E)-1,7-bis(1H-indol-6-yl)hepta-1,6-diene-3,5-dione]"
3,211 to 215 °C,"O=C(/C=C/c1cccc2cc[nH]c12)CC(=O)/C=C/c1cccc2cc[nH]c12 [CU392, (1E,6E)-1,7-bis(1H-indol-7-yl)hepta-1,6-diene-3,5-dione]"
4,264 to 268 °C,"O=C(/C=C/c1cc2ccccc2[nH]1)CC(=O)/C=C/c1cc2ccccc2[nH]1 [CU393, (1E,6E)-1,7-bis(1H-indol-2-yl)hepta-1,6-diene-3,5-dione]"
5,206 to 213 °C,"O=C(/C=C/c1cn(Cc2ccccc2)c2ccccc12)CC(=O)/C=C/c1cn(Cc2ccccc2)c2ccccc12 [CU397, (1E,6E)-1,7-bis(1-benzyl-1H-indol-3-yl)hepta-1,6-diene-3,5-dione]"
6,164 to 170 °C,"O=C(/C=C/c1ccc(O)cc1)CC(=O)/C=C/c1ccc2ccn(Cc3ccccc3)c2c1 [CU400, (1E,6E)-1-(1-benzyl-1H-indol-6-yl)-7-(4-hydroxyphenyl)hepta-1,6-diene-3,5-dione]"
7,196 to 200 °C,"CS(=O)(=O)n1cc(/C=C/C(=O)CC(=O)/C=C/c2ccc(O)cc2)c2ccccc21 [CU401, (1E,6E)-1-(4-hydroxyphenyl)-7-[1-(methylsulfonyl)-1H-indol-3-yl]hepta-1,6-diene-3,5-dione]"
8,218 to 222 °C,"Cc1ccc(S(=O)(=O)n2cc(/C=C/C(=O)CC(=O)/C=C/c3ccc(O)cc3)c3ccccc32)cc1 [CU403, (1E,6E)-1-(4-hydroxyphenyl)-7-(1-tosyl-1H-indol-3-yl)hepta-1,6-diene-3,5-dione]"
9,107 to 112 °C,"Cc1ccc(S(=O)(=O)n2ccc3ccc(/C=C/C(=O)CC(=O)/C=C/c4ccc(O)cc4)cc32)cc1 [CU404, (1E,6E)-1-(4-hydroxyphenyl)-7-(1-tosyl-1H-indol-6-yl)hepta-1,6-diene-3,5-dione]"
10,227 to 231 °C,"O=C(/C=C/c1ccc(O)cc1)CC(=O)/C=C/c1coc2ccccc2c1=O [CU407, (1E,6E)-1-(chromon-3-yl)-7-(4-hydroxyphenyl)hepta-1,6-diene-3,5-dione]"
11,212 to 217 °C,"Nc1ccc(/C=C/C(=O)CC(=O)/C=C/c2ccc(O)cc2)cc1 [CU408, (1E,6E)-1-(4-aminophenyl)-7-(4-hydroxyphenyl)hepta-1,6-diene-3,5-dione]"
12,189 to 196 °C,"Cn1c(/C=C/C(=O)CC(=O)/C=C/c2cc3ccccc3n2C)cc2ccccc21 [CU409, (1E,6E)-1,7-bis(1-methyl-1H-indol-2-yl)hepta-1,6-diene-3,5-dione]"
13,76 to 86 °C,"COc1cc(N(C)C)ccc1/C=C/C(=O)CC(=O)/C=C/c1ccc(N(C)C)cc1OC [CU410, (1E,6E)-1,7-bis(4-dimethylamino-2-methoxyphenyl)hepta-1,6-diene-3,5-dione]"
14,238 to 241 °C,"CN(C)c1ccc(/C=C/C(=O)CC(=O)/C=C/c2ccc(N(C)C)cc2Cl)c(Cl)c1 [CU412, (1E,6E)-1,7-bis(2-chloro-4-dimethylaminophenyl)hepta-1,6-diene-3,5-dione]"
15,202 to 208 °C,"O=C(/C=C/c1cccc2cccnc12)CC(=O)/C=C/c1cccc2cccnc12 [CU414, (1E,6E)-1,7-bis(quinolin-8-yl)hepta-1,6-diene-3,5-dione]"
16,250 to 254 °C,"COc1cc(=O)oc2ccc(/C=C/C(=O)CC(=O)/C=C/c3ccc(O)cc3)cc12 [CU415, (1E,6E)-1-(4-hydroxyphenyl)-7-(4-methoxycoumarin-6-yl)hepta-1,6-diene-3,5-dione]"
17,158 to 161 °C,"COc1cc(/C=C/C(=O)CC(=O)/C=C/c2cn(Cc3ccccc3)c3ccccc23)ccc1O [CU416, (1E,6E)-1-(1-benzyl-1H-indol-3-yl)-7-(4-hydroxy-3-methoxyphenyl)hepta-1,6-diene-3,5-dione]"
18,194 to 199 °C,"COc1ccc(/C=C/C(=O)CC(=O)/C=C/c2cn(Cc3ccccc3)c3ccccc23)cc1O [CU417, (1E,6E)-1-(1-benzyl-1H-indol-3-yl)-7-(3-hydroxy-4-methoxyphenyl)hepta-1,6-diene-3,5-dione]"
19,161 to 167 °C,"N[C@H](Cc1ccccc1)C(=O)Nc1ccc(/C=C/C(=O)CC(=O)/C=C/c2ccc(O)cc2)cc1 [CU423, (1E,6E)-1-[4-((R)-2-amino-3-phenylpropionylamino)phenyl]-7-(4-hydroxyphenyl)hepta-1,6-diene-3,5-dione]"
20,173 to 180 °C,"O=C(/C=C/c1ccc(O)cc1)CC(=O)/C=C/c1ccccc1CO [CU424, (1E,6E)-1-(2-hydroxymethylphenyl)-7-(4-hydroxyphenyl)hepta-1,6-diene-3,5-dione]"
21,212 to 215 °C,"CCN(CC)c1ccc(/C=C/C(=O)CC(=O)/C=C/c2ccc(O)cc2)c(OC(=O)c2ccccc2)c1 [CU425, (1E,6E)-1-(2-benzoyloxy-4-diethylaminophenyl)-7-(4-hydroxyphenyl)hepta-1,6-diene-3,5-dione]"
22,69 to 76 °C,"CCN(CC)c1ccc(/C=C/C(=O)CC(=O)/C=C/c2ccc(O)cc2)c(OCC=C(C)C)c1 [CU426, (1E,6E)-1-(4-diethylamino-2-prenyloxyphenyl)-7-(4-hydroxyphenyl)hepta-1,6-diene-3,5-dione]"
23,192 to 196 °C,"CCN(CC)c1ccc(/C=C/C(=O)CC(=O)/C=C/c2ccc(N(CC)CC)cc2OC(=O)c2ccccc2)c(OC(=O)c2ccccc2)c1 [CU427, (1E,6E)-1,7-bis(2-benzoyloxy-4-diethylaminophenyl)hepta-1,6-diene-3,5-dione]"
24,182 to 186 °C,"CCN(CC)c1ccc(/C=C/C(=O)CC(=O)/C=C/c2ccc(O)cc2)c(OCCO)c1 [CU430, (1E,6E)-1-[4-diethylamino-2-(2-hydroxyethoxy)phenyl]-7-(4-hydroxyphenyl)hepta-1,6-diene-3,5-dione]"

row,Compound,melting point
1,"CC(C)(C)OC(=O)N[C@@H](Cc1ccccc1)C(=O)Nc1ccc(/C=C/C(=O)CC(=O)/C=C/c2ccc(O)cc2)cc1 [CU396, (1E,6E)-1-(4-hydroxyphenyl)-7-[4-((S)-2-tert-butoxycarbonylamino-3-phenylpropionylamino)phenyl]hepta-1,6-diene-3,5-dione]",116 to 121 °C
2,"CC(C)(C)OC(=O)Nc1ccc(/C=C/C(=O)CC(=O)/C=C/c2ccc(O)cc2)cc1 [CU405, (1E,6E)-1-[4-(tert-butoxycarbonylamino)phenyl]-7-(4-hydroxyphenyl)hepta-1,6-diene-3,5-dione]",181 to 184 °C
3,"CC(C)(C)OC(=O)N[C@H](Cc1ccccc1)C(=O)Nc1ccc(/C=C/C(=O)CC(=O)/C=C/c2ccc(O)cc2)cc1 [CU406, (1E,6E)-1-[4-((R)-2-tert-butoxycarbonylamino-3-phenylpropionylamino)phenyl]-7-(4-hydroxyphenyl)hepta-1,6-diene-3,5-dione]",113 to 120 °C
4,"CC(C)(C)OC(=O)N1CCc2ccc(/C=C/C(=O)CC(=O)/C=C/c3ccc(O)cc3)cc21 [CU419, (1E,6E)-1-[1-(tert-butoxycarbonyl)-indolin-6-yl]-7-(4-hydroxyphenyl)hepta-1,6-diene-3,5-dione]",111 to 118 °C

# Source: patent US8962674B2 (Tokyo Institute of Technology, priority 2006, dated 2015)
